We go through two molecules from patent publication US4668677A, “4-phenylphthalazine derivatives, their preparation and their use as pharmaceuticals” (Mitsubishi Chemical Industries Limited, priority 1984, dated 1987).

Read-outs that look alike come from different tables or passages of the source.

For assay [1], the system named is blood platelets. The assay is described as follows: Activity to inhibit the aggregation of blood platelets (collagen, ex vivo after oral administration). The class given is in vivo, rat (male Wistar-ST strain). To be noted: Rattus norvegicus, Platelet; for inhibition at 3 mg/kg: 3 mg/Kg oral (Table 5); for inhibition at 30 mg/kg: 30 mg/Kg oral (Table 5). As to the method: Male Wistar-ST strain rats of an average body weight of 250 g were used, a group consisting of 8 animals. The test compound indicated in the following Table 1 was orally administered to rats in the form of a suspension in a 1% tragacanth aqueous solution at 4 ml/Kg (the test compound 10 mg/Kg).
One hour after the administration, blood samples were obtained from the carotid artery by means of a cannule. […] Tubes were turned upside-down and then subjected to centrifugation at 200×g over 15 minutes to assign the supernatant as a platelet-rich plasma (PRP). The residue was further centrifuged at […] over 15 minutes to assign the supernatant as a platelet-poor plasma (PPP). These supernatants were applied for determining the ability to aggregate blood platelets. […] As an aggregation inducing agent, collagen (availale from Hormon-chemie A.G.) was used at a concentration of 7 to 10 μg/ml.
Inhibitory rate to aggregate blood platelets was calculated according to the following equation: [formula] A: […] in the group to which the 1% tragacanth solution alone was given (Control)
B: Aggregation rate in the group to which the tragacanth solution of the test compound was given.

Assay [2] deals with blood platelets. The assay is described as follows: Activity to inhibit the blood platelet adhesion (glass bead method). The class given is cell-based, rat (male Wistar-ST strain). To be noted: Rattus norvegicus, read-out: Inhibitory rate of blood platelet adhesion. As to the method: As experimental animals, there were used male Wistar-ST strain rats of an average body weight of 250 g.
Blood samples were obained from carotid arteries by means of a cannule and immediately admixed with sodium citrate at a volume ratio of 1/10. The mixture was centrifuged at 200×g over 15 minutes to collect the supernatant (platelet-rich plasma: PRP). The PRP was then centrifuged at 2000×g over 15 minutes and the supernatant was removed to give blood platelet pellet.
To the resultant blood platelet pellet was added a 15 mM tris.HCl buffer solution with EDTA (pH 7.4) to resuspend blood platelets therein and then one applied centrifugation at 2000×g over 15 minutes and the supernatant was removed. The resultant washed blood platelets were added to a 0.3 mM tris.HCl buffer solution with CaCl2 (pH 7.4) to resuspend blood platelets therein, whereby there was prepared a blood platelet suspension adjusted to five hundred thousand platelets/μl. To 2 ml of the blood platelet suspension were added 2 μl of a methanolic solution of each test compound and incubation was effected for 15 minutes. Then blood platelet adhesion was determined according to a glass bead method by using a timing blood suction apparatus for determining the blood platelet adhesion.
The number of blood platelets was counted by means of a blood platelet counter.
Inhibitory rate of blood platelet adhesion was calculated according to the following equation: [formula] A: Blood platelet number in the blood platelet suspension passed through a control column
B: Blood platelet number in the blood platelet suspension passed through a bead-packing column

The test system of assay [3] is coronary artery. As to the kind of experiment: Activity to increase blood flow volume in coronary artery. Format: in vivo, dog (mongrel adult dog). As to the method: (§1) The compound of this invention was dissolved in an aqueous solution containing 1% tartaric acid and 1% dimethylacetamide, while papaverine hydrochloride dissolved in 0.9% physiological saline. These test compounds were intravenously given through a residual polyethylene tube within femoral vein.
(§2) A mongrel adult dog was anesthetized with pentobarbital sodium and then underwent thoracotomy under artificial respiration. After cardiac membrane was removed, the origin of branches in left coronary artery was removed from its peripheral tissues and blood flow volume of coronary artery was measured via the probe for determining blood flow which was attached to said origin. Simultaneously, blood pressure in femoral artery was measured. Preparation and administration of test compounds were carried out in the same manner as in the above item (6).

The test system of assay [4] is candate nucleus. As to the kind of experiment: Activity to increase topical cerebral blood flow, candate nucleus (heat clearance method). To be noted: change in blood flow expressed in terms of voltage. The class given is in vivo, rabbit (male New Zealand White). As to the method: as §1
(§3) Physiol. Scand., 67, 1 (1966); "Kokyu to Junkan" (in Japanese), 15, 435 (1967); the Journal of the Pharmacological Society of Japan, 71, 709 (1975)]. Simultaneously, blood pressure in femoral artery was also determined. Preparation and administration of test compounds were carried out in the same manner as in the above item (6).

In assay [5] the test system is femoral artery. As to the kind of experiment: Blood pressure in femoral artery, coronary blood flow test. The class given is in vivo, dog (mongrel adult dog). As to the method: as §1, §2
The test system of assay [6] is cerebral cortex. As to the kind of experiment: Activity to increase topical cerebral blood flow, cerebral cortex (heat clearance method). The class given is in vivo, rabbit (male New Zealand White). The conditions noted are these: change in blood flow expressed in terms of voltage. As to the method:
as §1, §3

The test system of assay [7] is femoral artery. As to the kind of experiment: Blood pressure in femoral artery, topical cerebral blood flow test. The class given is in vivo, rabbit (male New Zealand White). As to the method: as §1, §3
For assay [8], the system named is Thoracic aorta. The assay is described as follows: Calcium antagonistic activity (relaxation of thoracic aorta). Format: cell-based, rat (male Wistar strain). The conditions noted are these: Rattus norvegicus, 10 mM CaCl2. As to the method:
Thoracic aorta was removed from male Wistar strain rats with a body weight of 350 g to 450 g and then spiral-shaped pieces of aorta were prepared therefrom. […] Thereafter, samples were further stabilized in Krebs-Henseleit solution containing no CaCl2 over 1 hour and then in a 80 mM KCl nutritive liquid wherein NaCl was exchanged with an equimolar KCl (depolarized liquid) over a further one hour. Then, samples were washed with the depolarized liquid and loaded with a static tension of 1.0 g. When CaCl2 was added to the nutritive liquid so as to reach a final concentration of 10 mM, tension was produced in samples and, after 15-20 minutes from the addition of CaCl2, the maximum tension was obtained. At this point, test compounds were applied and relaxing activity of test compounds was evaluated. Tension was determined in equal dimension.
Relaxation rate was calculated according to the following equation: [formula] A: Maximum tension generated B: Generated tension retained after administration of test compound
All test compounds were given in the form of a solution in dimethyl sulfoxide at a dose of 0.1 ml, whereupon a final concentration of dimethyl sulfoxide itself was adjusted to 0.5 V/V %.

Setting [9] is: read-out: Inhibitory rate of blood platelet aggregation.
Where [10] appears, read: 10 mg/Kg oral (Table 5), read-out: Inhibitory rate of blood platelet aggregation.
Setting [11] is: 10 mg/Kg oral, 1 hour after administration, collagen 7 to 10 μg/ml, read-out: Inhibitory rate (blood platelet aggregation).

On to `CCC(CC)Nc1nnc(-c2ccccc2)c2ccccc12` [Compound 2, 1-(1-ethylpropylamino)-4-phenylphthalazine], for which the inhibition at 3 mg/kg in assay [1] (setting [9]) was found to be 39%. Besides, the inhibition at 10 mg/kg in assay [1] (setting [10]) and in assay [1] (setting [11]) was 70.1% throughout. For the same molecule, the inhibition at 30 mg/kg in assay [1] (setting [9]) amounted to 85.5%. Further, in assay [1] (100 mg/Kg oral (Table 5), read-out: Inhibitory rate of blood platelet aggregation), the inhibition at 100 mg/kg came out at 100%.
In the case of `CC(C)(C)CNc1nnc(-c2ccccc2)c2ccccc12` [Compound 1, 1-neopentylamino-4-phenylphthalazine], the inhibition at 300 µM in assay [2] (3·10^-4 M) was 50.2%. For the same molecule, the inhibition at 30 µM in assay [2] (3·10^-5 M) came out at 40.8%. In addition, the inhibition at 3 µM stood at 12.5% in assay [2] (3·10^-6 M) and 8.5% in assay [8] (final concentration 3 μM). Besides, in assay [2] (3·10^-7 M), the inhibition at 0.3 µM is 8.2%. The “Blood flow volume in coronery artery, After administration” value is 28.8 mL/min in assay [3] (0.1 mg/Kg) and 37.5 mL/min in assay [3] (0.3 mg/Kg). The “Blood flow volume in coronery artery, Before administration” value in assay [3] (0.1 mg/Kg) and in assay [3] (0.3 mg/Kg) was 18.8 mL/min throughout. For the same molecule, the “Blood flow volume in coronery artery, Increase rate” value in assay [3] (0.1 mg/Kg) was 53.2%; in assay [3] (0.3 mg/Kg), 99.5%. The “Increase in topical blood flow volume, Candate nucleus” value is recorded as 0.63 ± 0.08 Δ μV in assay [4] (0.3 mg/Kg i.v.) and 0.85 ± 0.25 Δ μV in assay [4] (1 mg/Kg i.v.). For the same molecule, the “Lowering of blood pressure in femoral artery” value in assay [5] (0.1 mg/Kg) is 17.6%; in assay [5] (0.3 mg/Kg), 29.4%; in assay [7] (0.3 mg/Kg i.v.), 18.2 ± 0.98%; in assay [7] (1 mg/Kg i.v.), 30.8 ± 3.2%. In addition, the figures for the “Increase in topical blood flow volume, Cerebral cortex” value in assay [6] (0.3 mg/Kg i.v.) and in assay [6] (1 mg/Kg i.v.) were 1.03 ± 0.12 Δ μV and 2.05 ± 0.29 Δ μV, respectively. For the same molecule, the inhibition at 10 µM in assay [8] (final concentration 10 μM) worked out at 30%. Further, the inhibition at 3 mg/kg in assay [1] (setting [9]) turned out to be 48.1%. The inhibition at 10 mg/kg in assay [1] (setting [10]) and in assay [1] (setting [11]) was 100% throughout. In assay [1] (setting [9]), the inhibition at 30 mg/kg was 100%.
